Assay results: US8192962B2, “Processes for detecting toxic substances” (Daikin Industries, Ltd., priority 2001, dated 2012)

Tested on: Mitochondria-located protein genes
Assay: DNA chip mRNA expression in yeast, mitochondria-located protein genes (Table 2)
Type: cell-based, Saccharomyces cerevisiae S288C
Conditions: cells incubated two hours with the chemical substance
Outline: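 Values are treated/untreated fluorescence ratios from a whole-genome yeast DNA chip hybridized over 12 hours at 65° C with Cy3- or Cy5-labelled cDNA from poly(A) mRNA. Log-phase S288C yeast in YPD at 25° C had received a single toxic chemical for two hours, dosed to slow growth without killing.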

## Na2As [(1)]
Yeast gene YAL039C
  The level of expressed mRNA in the presence of chemical substance/The level of expressed mRNA in the absence of chemical substance: 1.1
Yeast gene YBL022C
  The level of expressed mRNA in the presence of chemical substance/The level of expressed mRNA in the absence of chemical substance: 0.4
Yeast gene YBL030C
  The level of expressed mRNA in the presence of chemical substance/The level of expressed mRNA in the absence of chemical substance: 1.0
Yeast gene YBL038W
  The level of expressed mRNA in the presence of chemical substance/The level of expressed mRNA in the absence of chemical substance: 1.0
Yeast gene YBL099W
  The level of expressed mRNA in the presence of chemical substance/The level of expressed mRNA in the absence of chemical substance: 0.8
Yeast gene YBR003W
  The level of expressed mRNA in the presence of chemical substance/The level of expressed mRNA in the absence of chemical substance: 0.9
Yeast gene YBR044C
  The level of expressed mRNA in the presence of chemical substance/The level of expressed mRNA in the absence of chemical substance: 0.8
Yeast gene YBR091C
  The level of expressed mRNA in the presence of chemical substance/The level of expressed mRNA in the absence of chemical substance: 1.1
Yeast gene YBR122C
  The level of expressed mRNA in the presence of chemical substance/The level of expressed mRNA in the absence of chemical substance: 0.9
Yeast gene YBR185C
  The level of expressed mRNA in the presence of chemical substance/The level of expressed mRNA in the absence of chemical substance: 1.2
Yeast gene YBR221C
  The level of expressed mRNA in the presence of chemical substance/The level of expressed mRNA in the absence of chemical substance: 0.8
Yeast gene YBR251W
  The level of expressed mRNA in the presence of chemical substance/The level of expressed mRNA in the absence of chemical substance: 1.0
Yeast gene YBR282W
  The level of expressed mRNA in the presence of chemical substance/The level of expressed mRNA in the absence of chemical substance: 1.0
Yeast gene YCL057W
  The level of expressed mRNA in the presence of chemical substance/The level of expressed mRNA in the absence of chemical substance: 0.6
Yeast gene YCR046C
  The level of expressed mRNA in the presence of chemical substance/The level of expressed mRNA in the absence of chemical substance: 1.0
Yeast gene YCR083W
  The level of expressed mRNA in the presence of chemical substance/The level of expressed mRNA in the absence of chemical substance: 1.1
Yeast gene YDL067C
  The level of expressed mRNA in the presence of chemical substance/The level of expressed mRNA in the absence of chemical substance: 1.8
Yeast gene YDL181W
  The level of expressed mRNA in the presence of chemical substance/The level of expressed mRNA in the absence of chemical substance: 1.3
Yeast gene YDL198C
  The level of expressed mRNA in the presence of chemical substance/The level of expressed mRNA in the absence of chemical substance: 1.4
Yeast gene YDR079W
  The level of expressed mRNA in the presence of chemical substance/The level of expressed mRNA in the absence of chemical substance: 1.3
Yeast gene YDR178W
  The level of expressed mRNA in the presence of chemical substance/The level of expressed mRNA in the absence of chemical substance: 2.0
Yeast gene YDR231C
  The level of expressed mRNA in the presence of chemical substance/The level of expressed mRNA in the absence of chemical substance: 1.1
Yeast gene YDR258C
  The level of expressed mRNA in the presence of chemical substance/The level of expressed mRNA in the absence of chemical substance: 1.6
Yeast gene YDR298C
  The level of expressed mRNA in the presence of chemical substance/The level of expressed mRNA in the absence of chemical substance: 1.3
Yeast gene YDR347W
  The level of expressed mRNA in the presence of chemical substance/The level of expressed mRNA in the absence of chemical substance: 1.1
Yeast gene YDR377W
  The level of expressed mRNA in the presence of chemical substance/The level of expressed mRNA in the absence of chemical substance: 1.3
Yeast gene YDR529C
  The level of expressed mRNA in the presence of chemical substance/The level of expressed mRNA in the absence of chemical substance: 1.8
Yeast gene YEL024W
  The level of expressed mRNA in the presence of chemical substance/The level of expressed mRNA in the absence of chemical substance: 1.3
Yeast gene YEL039C
  The level of expressed mRNA in the presence of chemical substance/The level of expressed mRNA in the absence of chemical substance: 1.1
Yeast gene YER178W
  The level of expressed mRNA in the presence of chemical substance/The level of expressed mRNA in the absence of chemical substance: 0.8
Yeast gene YFL016C
  The level of expressed mRNA in the presence of chemical substance/The level of expressed mRNA in the absence of chemical substance: 0.8
Yeast gene YGL018C
  The level of expressed mRNA in the presence of chemical substance/The level of expressed mRNA in the absence of chemical substance: 1.1
Yeast gene YGL187C
  The level of expressed mRNA in the presence of chemical substance/The level of expressed mRNA in the absence of chemical substance: 1.5
Yeast gene YGL191W
  The level of expressed mRNA in the presence of chemical substance/The level of expressed mRNA in the absence of chemical substance: 1.7
Yeast gene YGR008C
  The level of expressed mRNA in the presence of chemical substance/The level of expressed mRNA in the absence of chemical substance: 2.1
Yeast gene YGR028W
  The level of expressed mRNA in the presence of chemical substance/The level of expressed mRNA in the absence of chemical substance: 1.4
Yeast gene YGR062C
  The level of expressed mRNA in the presence of chemical substance/The level of expressed mRNA in the absence of chemical substance: 0.9
Yeast gene YGR076C
  The level of expressed mRNA in the presence of chemical substance/The level of expressed mRNA in the absence of chemical substance: 1.3
Yeast gene YGR082W
  The level of expressed mRNA in the presence of chemical substance/The level of expressed mRNA in the absence of chemical substance: 1.0
Yeast gene YGR174C
  The level of expressed mRNA in the presence of chemical substance/The level of expressed mRNA in the absence of chemical substance: 1.1
Yeast gene YGR244C
  The level of expressed mRNA in the presence of chemical substance/The level of expressed mRNA in the absence of chemical substance: 1.0
Yeast gene YHR008C
  The level of expressed mRNA in the presence of chemical substance/The level of expressed mRNA in the absence of chemical substance: 1.3
Yeast gene YIL155C
  The level of expressed mRNA in the presence of chemical substance/The level of expressed mRNA in the absence of chemical substance: 1.0
Yeast gene YJL096W
  The level of expressed mRNA in the presence of chemical substance/The level of expressed mRNA in the absence of chemical substance: 1.0
Yeast gene YJL102W
  The level of expressed mRNA in the presence of chemical substance/The level of expressed mRNA in the absence of chemical substance: 1.1
Yeast gene YJL133W
  The level of expressed mRNA in the presence of chemical substance/The level of expressed mRNA in the absence of chemical substance: 1.0
Yeast gene YJL166W
  The level of expressed mRNA in the presence of chemical substance/The level of expressed mRNA in the absence of chemical substance: 2.1
Yeast gene YJL180C
  The level of expressed mRNA in the presence of chemical substance/The level of expressed mRNA in the absence of chemical substance: 0.9
Yeast gene YJR045C
  The level of expressed mRNA in the presence of chemical substance/The level of expressed mRNA in the absence of chemical substance: 0.5
Yeast gene YJR077C
  The level of expressed mRNA in the presence of chemical substance/The level of expressed mRNA in the absence of chemical substance: 1.1
